The source of these data is patent publication US20240132480A1, “INHIBITORS OF MYCOBACTERIUM TUBERCULOSIS LIPOAMIDE DEHYDROGENASE” (Cornell University, priority 2021, published 2024).

For data set [1] the following is noted: microsomes.
The target in data set [2] is Mtb Lpd (Mycobacterium tuberculosis (strain ATCC 25618 / H37Rv), UniProt P9WHH9). The format is biochemical. As to conditions: for pIC50: read-out: LPD IC50; for IC50: 30 min preincubation, read-out: LPD IC50 (μM) w/ 30 min preincubation.

pIC50: −log10 of the molar value. Read-outs that look alike come from different tables or passages of the source.

In the case of `Cc1cc(S(=O)(=O)N2CC[C@H]2C(=O)Nc2ccc3c(c2)N(C)CCO3)c2[nH]ncc2c1` [Example 41], the “Human Liver Microsome Stability” value in data set [1] was found to be 197 µL/min/mg. In addition, the pIC50 in data set [2] was 7.45.
Turning to `Cc1cc(S(=O)(=O)N(C)CC(=O)Nc2ccc3c(c2)OCCN3C2COC2)c2[nH]c(C#N)cc2c1` [Example 189], the “Human Liver Microsome Stability” value in data set [1] is 142 µL/min/mg. In addition, in data set [2], the IC50 amounted to 0.018 µM and the pIC50 is 7.12.
Consider `CCN(CC(=O)NC1=CC(=O)C(C)C=C1)S(=O)(=O)c1cc(C)cc2cn[nH]c12` (centres unmarked) [Example 45], for which, in data set [1], the “Human Liver Microsome Stability” value amounted to 39 µL/min/mg. Also, the pIC50 in data set [2] was 7.57.
The corresponding values for `Cc1cc(S(=O)(=O)N(C)CC(=O)Nc2ccc(C3CCN(C)CC3)c(Cl)c2)c2[nH]ncc2c1` [Example 194] are 35 µL/min/mg and 7.14.
Turning to `Cc1cc(S(=O)(=O)N2CC[C@H]2C(=O)Nc2ccc3c(c2)OCCN3C(C)(C)CO)c2[nH]ncc2c1` [Example 147], in data set [1], the “Human Liver Microsome Stability” value is 212 µL/min/mg. For the same molecule, the pIC50 in data set [2] is 7.43.
On the same counts, the results for `Cc1cc(S(=O)(=O)N2CC[C@H]2C(=O)Nc2ccn(C)c(=O)c2)c2[nH]nc(Cl)c2c1` [Example 178] are -13 µL/min/mg and 6.68.
Regarding `COc1ccc(NC(=O)CN(C)S(=O)(=O)c2cc(C)cc3cc(C#N)[nH]c23)cn1` [Example 216, 2-((2-cyano-N,5-dimethyl-1H-indole)-7-sulfonamido)-N-(6-methoxypyridin-3-yl)acetamide], the “Human Liver Microsome Stability” value in data set [1] was determined as 49 µL/min/mg. In addition, in data set [2], the IC50 is 0.02 µM.
`Cc1cc(S(=O)(=O)N(C)CC(=O)Nc2ccn(C)c(=O)c2)c2n[nH]c(F)c2c1` [Example 95]: the “Human Liver Microsome Stability” value in data set [1] was 21 µL/min/mg. Besides, the pIC50 in data set [2] is 7.29.
The corresponding values for `CN(CC(=O)Nc1ccc2c(c1)OCCN2C1CCOCC1)S(=O)(=O)c1cc(C(F)F)cc2c(F)[nH]nc12` [Example 175, 2-((5-(difluoromethyl)-3-fluoro-N-methyl-1H-indazole)-7-sulfonamido)-N-(4-(tetrahydro-2H-pyran-4-yl)-3,4-dihydro-2H-benzo[b][1,4]oxazin-7-yl)acetamide] are 166 µL/min/mg and 7.05.
`Cc1cc(S(=O)(=O)N(C)CC(=O)NCC#Cc2ccccc2)c2[nH]c(C#N)cc2c1` [Example 218]: the “Human Liver Microsome Stability” value in data set [1] was 191 µL/min/mg. Besides, the IC50 in data set [2] was 0.03 µM.
Consider `Cc1cc(S(=O)(=O)N2CC[C@H]2C(=O)Nc2ccc3c(c2)OCCN3C2CCOCC2)c2n[nH]cc2c1` [Example 144], for which the “Human Liver Microsome Stability” value in data set [1] came out at 166 µL/min/mg. In data set [2], the pIC50 is 7.42.
For `CCc1ccc(NC(=O)CN(C)S(=O)(=O)c2cc(C)cc3cc[nH]c23)cc1C` [Example 21], the “Human Liver Microsome Stability” value in data set [1] was 328 µL/min/mg. In addition, the pIC50 in data set [2] is 6.87.
As to `Cc1cc(S(=O)(=O)N(C)CC(=O)Nc2ccc3c(c2)N(C2COC2)CCO3)c2[nH]c(C#N)cc2c1` [Example 208], the “Human Liver Microsome Stability” value in data set [1] was 341 µL/min/mg. The IC50 in data set [2] came to 0.015 µM.
Take `Cn1ccc(NC(=O)[C@@H]2CCN2S(=O)(=O)c2cc(Br)cc3c(F)n[nH]c23)cc1=O` [Example 151, (S)-1-((5-bromo-3-fluoro-1H-indazol-7-yl)sulfonyl)-N-(1-methyl-2-oxo-1,2-dihydropyridin-4-yl)azetidine-2-carboxamide]: the “Human Liver Microsome Stability” value in data set [1] is -4 µL/min/mg. In addition, the pIC50 in data set [2] was 6.74.
On the same counts, the results for `Cc1cc(S(=O)(=O)N(C)CC(=O)Nc2ccc3c(c2)OCCN3CC(C)(C)O)c2[nH]ncc2c1` [Example 146] are 31 µL/min/mg and 7.59.
On the same counts, the results for `CCN(CC(=O)Nc1ccc(N2CCN(C)CC2)c(Cl)c1)S(=O)(=O)c1cc(C)cc2cn[nH]c12` [Example 160] are 107 µL/min/mg and 6.97.
Consider `COc1ccc(NC(=O)CN(C)S(=O)(=O)c2cc(C)cc3c(C)n[nH]c23)cc1C` [Example 9], for which the “Human Liver Microsome Stability” value in data set [1] is >768 µL/min/mg. Besides, in data set [2], the pIC50 was 7.56.
As to `COc1ccc(NC(=O)CN(C)S(=O)(=O)c2cc(C)cc3cc(C#N)[nH]c23)cc1Cl` [Example 211, N-(3-chloro-4-methoxyphenyl)-2-((2-cyano-N,5-dimethyl-1H-indole)-7-sulfonamido)acetamide], the “Human Liver Microsome Stability” value in data set [1] amounted to 358 µL/min/mg. Further, in data set [2], the IC50 is 0.02 µM.
Regarding `COc1cc(NC(=O)CN(C)S(=O)(=O)c2cc(C)cc3cc(C#N)[nH]c23)ccn1` [Example 214, 2-((2-cyano-N,5-dimethyl-1H-indole)-7-sulfonamido)-N-(2-methoxypyridin-4-yl)acetamide], the “Human Liver Microsome Stability” value in data set [1] worked out at 91 µL/min/mg. In addition, the IC50 in data set [2] came to 0.021 µM.
Consider `Cc1cc(S(=O)(=O)N2CC[C@H]2C(=O)NC2CCN(C)CC2)c2[nH]ncc2c1` [Example 129], for which the “Human Liver Microsome Stability” value in data set [1] was 418 µL/min/mg. The pIC50 in data set [2] is 5.18.
On the same counts, the results for `O=C(Nc1ccc(N2CCOCC2)c(Cl)c1)[C@@H]1CCN1S(=O)(=O)c1cc(C(F)F)cc2cn[nH]c12` [Example 190, (S)—N-(3-chloro-4-morpholinophenyl)-1-((5-(difluoromethyl)-1H-indazol-7-yl)sulfonyl)azetidine-2-carboxamide] are 86 µL/min/mg and 6.95.
Regarding `CN(CC(=O)Nc1ccn(C)c(=O)c1)S(=O)(=O)c1cc(C2CC2)cc2cn[nH]c12` [Example 35], the “Human Liver Microsome Stability” value in data set [1] is 91 µL/min/mg. For the same molecule, the pIC50 in data set [2] was 6.82.
On the same counts, the results for `Cc1cc(S(=O)(=O)N(C)CC(=O)Nc2ccc3c(c2)OC(C)(C)CN3C)c2n[nH]cc2c1` [Example 158] are 46 µL/min/mg and 7.66.
Regarding `Cc1cc(S(=O)(=O)N2CC[C@H]2C(=O)Nc2ccc3c(c2)OCCN3C2COC2)c2[nH]c(C#N)cc2c1` [Example 206, (S)-1-((2-cyano-5-methyl-1H-indol-7-yl)sulfonyl)-N-(4-(oxetan-3-yl)-3,4-dihydro-2H-benzo[b][1,4]oxazin-7-yl)azetidine-2-carboxamide], the “Human Liver Microsome Stability” value in data set [1] was 111 µL/min/mg. In data set [2], the IC50 is 0.022 µM and the pIC50 is 7.09.
Consider `Cc1cc2c(c(S(=O)(=O)N(C)CC(=O)Nc3ccc(N4CCCCC4)c(C)c3)c1)CC=C2` [Example 11], for which, in data set [1], the “Human Liver Microsome Stability” value is 105 µL/min/mg. Further, the pIC50 in data set [2] was 7.47.
On to `O=C(Nc1ccc2c(c1)OCCN2C1CCOCC1)[C@@H]1CCN1S(=O)(=O)c1cc(C(F)F)cc2c(F)n[nH]c12` [Example 185], for which the “Human Liver Microsome Stability” value in data set [1] stood at 114 µL/min/mg. The pIC50 in data set [2] was 6.74.
As to `Cc1cc(S(=O)(=O)N(C)CC(=O)Nc2ccc(N3CCOCC3)c(C)c2)c2[nH]ncc2c1` [Example 32], the “Human Liver Microsome Stability” value in data set [1] stood at 234 µL/min/mg. Besides, the pIC50 in data set [2] is 8.37.
Consider `CCc1ccc(NC(=O)CN(C)S(=O)(=O)c2cc(C)cc3cc(C#N)[nH]c23)cc1Cl` [Example 212], for which, in data set [1], the “Human Liver Microsome Stability” value worked out at 210 µL/min/mg. In data set [2], the IC50 came out at 0.035 µM.
As for `Cc1cc(S(=O)(=O)N(C)CC(=O)Nc2ccc3cccnc3c2)c2n[nH]cc2c1` [Example 61], the “Human Liver Microsome Stability” value in data set [1] is 122 µL/min/mg. Further, the pIC50 in data set [2] is 7.64.
The corresponding values for `Cc1cc(S(=O)(=O)N2CC[C@H]2C(=O)Nc2ccn(C)c(=O)c2)c2[nH]c(C#N)cc2c1` [Example 187, (S)-1-((2-cyano-5-methyl-1H-indol-7-yl)sulfonyl)-N-(1-methyl-2-oxo-1,2-dihydropyridin-4-yl)azetidine-2-carboxamide] are -2 µL/min/mg and 6.87.
On the same counts, the results for `CN(C)CCOc1ccc(NC(=O)CN(C)S(=O)(=O)c2cccc3cn[nH]c23)cc1Cl` [Example 164] are -16 µL/min/mg and 7.07.
On the same counts, the results for `Cc1cc(S(=O)(=O)N(C)CC(=O)Nc2ccc3c(c2)OCCN3C)c2[nH]ncc2c1` [Example 30, 2-((N,5-dimethyl-1H-indazole)-7-sulfonamido)-N-(4-methyl-3,4-dihydro-2H-benzo[b][1,4]oxazin-7-yl)acetamide] are 78 µL/min/mg and 8.44.
As for `Cc1cc(S(=O)(=O)N(C)CC(=O)NCc2cn(-c3ccccc3)nn2)c2[nH]ncc2c1` [Example 125, 2-((N,5-dimethyl-1H-indazole)-7-sulfonamido)-N-((1-phenyl-1H-1,2,3-triazol-4-yl)methyl)acetamide], the “Human Liver Microsome Stability” value in data set [1] was determined as 520 µL/min/mg. Moreover, the pIC50 in data set [2] was 7.32.
On the same counts, the results for `Cc1cc(S(=O)(=O)N(C)CC(=O)Nc2ccn(C)c(=O)c2)c2[nH]ncc2c1F` [Example 43, 2-((4-fluoro-N,5-dimethyl-1H-indazole)-7-sulfonamido)-N-(1-methyl-2-oxo-1,2-dihydropyridin-4-yl)acetamide] are 42 µL/min/mg and 7.30.
In the case of `Cc1cc(S(=O)(=O)N(C)CC(=O)Nc2ccc3c(c2)N(C)CCO3)c2[nH]ncc2c1` [Example 31], the “Human Liver Microsome Stability” value in data set [1] came out at 91 µL/min/mg. Moreover, the pIC50 in data set [2] is 7.78.
For `CC#CC(C)(C)NC(=O)CN(C)S(=O)(=O)c1cc(C)cc2cc(C#N)[nH]c12` [Example 229], the “Human Liver Microsome Stability” value in data set [1] was found to be 160 µL/min/mg. Moreover, in data set [2], the IC50 is 0.031 µM.
In the case of `Cc1cc(S(=O)(=O)N(C)CC(=O)Nc2ccc(C3CCCCC3)c(C)c2)c2[nH]c(C)cc2c1` [Example 42], the “Human Liver Microsome Stability” value in data set [1] was 23 µL/min/mg. Also, in data set [2], the pIC50 was 6.24.
On the same counts, the results for `Cc1cc(S(=O)(=O)N(C)CC(=O)Nc2ccc3nccn3c2)c2n[nH]cc2c1` [Example 48] are 36 µL/min/mg and 7.38.
`Cc1cc(S(=O)(=O)N2CC[C@H]2C(=O)Nc2ccc3c(c2)OCCN3C)c2[nH]ncc2c1` [Example 40]: in data set [1], the “Human Liver Microsome Stability” value was found to be 78 µL/min/mg. Also, the pIC50 in data set [2] is 7.52.

As a reminder, the pIC50 is −log10 of the IC50, conventionally taken in molar units.
